Several values for one entry are separate records, joined by “and”; a condition that tells them apart may be missing. Equal values may be shown once.
Assays:
[1] = test system: ISG expression in SSc PBMCs; experiment: SSc PBMC type I IFN signaling gene expression array, unstimulated; assay type: cell-based, human
Description: PBMCs in vitro experiments
Peripheral blood mononuclear cells (PBMCs) from healthy and SSc donors were separated using density gradient method (Leucosep™, Greiner Bio-One International) from EDTA anticoagulated peripheral blood; isolated cells were washed twice by PBS. PBMCs were then incubated in RPMI1640 […]
For healthy PBMCs, cells were stimulated with 20 ng/mL of IFN (+/- compounds or DMSO). For SSc PBMCs, cells were in basal conditions with no additional IFN stimulation. Cells were centrifuged at 300 g for 10 minutes. […]
RNA was extracted from cell pellets using TRIzol™ (ThermoFisher
Scientific, Waltham, MA) and processed using Quick-RNA Miniprep Kit (Zymo Research) as per the manufacturer’s instruction.
For Type I IFN signalling analysis, the human IFN I RT2 Profiler PCR Array (Qiagen, PAMM-016ZE) was performed on available RNA from healthy (n=3) and SSc (n=9) donors. RNA was converted to cDNA using RT2 First Strand Kit (Qiagen). Next, the cDNA was mixed with RT2 SYBR Green Mastermix (Qiagen, Venlo). Successful PCR performance was confirmed by assay tests for genomic DNA contamination, RNA sample quality, as well as single melt curve determination and <35 Ct for each gene, leading to validated gene expression of 67 genes. Relative expression for each gene was determined, firstly by ∆CT calculated using the geometric mean of 4 housekeeping genes (ACTB, GAPDH, HPRT1, RPLP0), followed by 2^(-∆CT), and expressed as fold change to control, according to manufacturer’s guidance. IFN2α-induced ISGs in healthy donors were determined using a Student’s t-test (two-tail distribution and equal variances) on the triplicate fold change in 2^(-ΔCT) values between […]
donors). Heatmaps were generated using the “pheatmap” function in R (v4.0.2) and RStudio (v1.3.1093) applying row scaling to standardise the expression data across samples (R core team 2020.
R Foundation for Statistical Computing). The IFN2α inducible genes determined in healthy donors […]
171-C. To account for Type I IFN signalling heterogeneity across samples, the mean 2^(-∆CT) for each […]
relative gene expression, illustrated as a fold change and visualised in log2. The Type I IFN signalling array data for the patient samples is included in Source Data Figure 6, Extended Data Fig. 9.

[2] = test system: IFNAR1 cell surface levels in sgROSA MCF10A cells; experiment: MCF10A sgROSA IFNAR1 cell surface levels (FACS); assay type: cell-based, human
Description: To study the direct effect of BRISC DUB inhibitors, IFNAR1 surface levels were measured using flow cytometry (FACS) analysis. For this purpose, MCF10A WT and MCF10A BRCC45 KO cells expressing […]
BRCC45 WT or BRCC45 R137A were used. […]
minutes prior to the addition of 50 ng/mL of hIFN-Iα for various time points (45 minutes and 90 minutes).
After IFN treatment, cells were dissociated from plate using cell dissociation Buffer (ThermoFisher Scientific, #13150016) and were stained with LIVE/DEAD™ Fixable Violet Dead Cell Stain Kit, for 405 nm excitation (ThermoFisher Scientific, #L34963) for 30 minutes, as per the kit protocol. The cells were then washed using FACS buffer (DPBS, 1% BSA, 2 mM EDTA, 0.09% sodium azide) and transferred to 96-well round bottom plates. Resuspended cells were divided into three repeats for each sample, each was surface stained for 1 hour at 4 °C with: 1. Human IFN-alpha/beta R1 Antibody (R&D systems, #MAB245), 2. Mouse IgG1 Isotype Control (R&D systems, #MAB002), 3. FACS buffer (control cells).
Following incubation, cells were washed once with FACS buffer and were labelled for 30 minutes at 4 °C with either Biotin-SP-conjugated AffiniPure Donkey Anti-Mouse IgG (H+L) (Jackson Immunoresearch Laboratories) for samples 1 and 2 or with FACS buffer for sample 3. Cells were washed twice with FACS buffer and were labelled for 15 minutes at 4 °C with either R-Phycoerythrin-conjugated Streptavidin (Jackson Immunoresearch Laboratories) for samples 1 and 2 or with FACS buffer for sample 3. Cells were washed 3 times with FACS buffer and were analysed by FACS (MACSQuant, Miltenyi Biotec). For each sample from group 1 the Geo mean fluorescence intensity (MFI) of its isotype sample was reduced. IFNAR1 cell surface percentage was calculated by 100*(MFI

[3] = unstimulated PBMCs from SSc patients, one value per patient (P1-P9)

Compound: O=C(NC1CCNCC1)c1nn(C(=O)c2c(Cl)cccc2Cl)cc1NC(=O)c1c(Cl)cccc1Cl [JMS-175-2]
- number of ISGs (of 34) reduced compared to AP-5-145 ([1]; SSc PBMCs (n = 9), 2 µM, 16 h): 22
- ADAR, Type I IFN signalling array raw data [1, 3]: 3.812 and 3.743 and 4.113 and 4.435 and 3.832 and 4.965 and 3.1007 and 4.473 and 4.363
- BST2, Type I IFN signalling array raw data [1, 3]: 2.634 and 3.889 and 3.072 and 2.87 and 3.494 and 3.795 and 4.633 and 2.6092 and 2.483
- CASP1, Type I IFN signalling array raw data [1, 3]: 1.213 and 2.812 and 2.398 and 2.039 and 1.156 and 2.52 and 2.747 and 2.114 and 1.958
- CD86, Type I IFN signalling array raw data [1, 3]: 3.228 and 5.906 and 3.901 and 5.361 and 5.149 and 4.521 and 6.493 and 4.685 and 4.196
- CXCL10, Type I IFN signalling array raw data [1, 3]: 8.71 and 7.706 and 4.205 and 4.635 and 4.659 and 4.1108 and 5.782 and 5.515 and 4.585
- DDX58, Type I IFN signalling array raw data [1, 3]: 2.743 and 2.94 and 3.022 and 3.298 and 2.839 and 3.98 and 3.519 and 2.665 and 2.269
- GBP1, Type I IFN signalling array raw data [1, 3]: 2.158 and 2.728 and 1.98 and 1.48 and 2.261 and 1.7592 and 1.143 and 2.383 and 0.7799
- IFI6, Type I IFN signalling array raw data [1, 3]: 2.425 and 3.947 and 3.076 and 2.468 and 2.755 and 3.753 and 4.379 and 1.895 and 1.403
- IFI16, Type I IFN signalling array raw data [1, 3]: 2.049 and 1.794 and 2.214 and 1.769 and 1.846 and 2.52 and 0.8721 and 1.744 and 1.344
- IFIH1, Type I IFN signalling array raw data [1, 3]: 4.067 and 4.072 and 3.5554 and 2.793 and 3.2049 and 5.377 and 3.587 and 3.865 and 3.376
- IFIT1, Type I IFN signalling array raw data [1, 3]: 6.813 and 5.481 and 4.387 and 3.431 and 4.758 and 6.993 and 4.645 and 3.607 and 3.511
- IFIT2, Type I IFN signalling array raw data [1, 3]: 3.877 and 4.276 and 4.33 and 2.588 and 4.403 and 4.745 and 2.229 and 3.19 and 2.838
- IFIT3, Type I IFN signalling array raw data [1, 3]: 4.821 and 4.968 and 3.571 and 2.478 and 4.365 and 4.923 and 2.496 and 2.53 and 2.343
- IFITM1, Type I IFN signalling array raw data [1, 3]: 1.018 and 0.9593 and 1.422 and 1.403 and 1.369 and 1.662 and 1.509 and 1.105 and 0.5587
- IFITM2, Type I IFN signalling array raw data [1, 3]: 4.116 and 4.7 and 5.192 and 4.824 (2×) and 4.737 and 4.678 and 5.159 and 5.095
- IFITM3, Type I IFN signalling array raw data [1, 3]: 2.916 and 4.165 and 3.837 and 2.08 and 3.733 and 4.352 and 4.508 and 1.719 and 2.211
- IRF1, Type I IFN signalling array raw data [1, 3]: 1.526 and 2.165 and 1.923 and 0.6715 and 1.654 and 1.161 and 1.159 and 2.105 and 0.7689
- IRF7, Type I IFN signalling array raw data [1, 3]: 5.385 and 5.096 and 5.885 and 3.925 and 5.478 and 5.126 and 4.9117 and 4.798 and 3.676
- IRF9, Type I IFN signalling array raw data [1, 3]: 1.63 and 2.363 and 2.229 and 1.688 and 2.545 and 2.717 and 2.001 and 1.778 and 1.074
- ISG15, Type I IFN signalling array raw data [1, 3]: 7.828 and 5.157 and 3.914 and 1.97 and 4.252 and 5.488 and 3.54 and 2.475 and 2.54
- ISG20, Type I IFN signalling array raw data [1, 3]: 2.454 and 3.36 and 3.266 and 3.42 and 2.95 and 3.395 and 3.115 and 4.07 and 2.362
- MX1, Type I IFN signalling array raw data [1, 3]: 4.39 and 3.317 and 4.478 and 2.343 and 4.002 and 5.299 and 4.681 and 3.297 and 2.96
- MX2, Type I IFN signalling array raw data [1, 3]: 4.119 and 3.616 and 4.1617 and 3.303 and 3.807 and 5.104 and 3.9466 and 3.181 and 2.652
- MYD88, Type I IFN signalling array raw data [1, 3]: 2.47 and 3.66 and 3.439 and 3.359 and 3.397 and 3.681 and 4.188 and 3.514 and 3.446
- NMI, Type I IFN signalling array raw data [1, 3]: 1.562 and 2.473 and 2.043 and 2.157 and 2.037 and 2.367 and 1.861 and 2.107 and 1.945
- OAS1, Type I IFN signalling array raw data [1, 3]: 3.9946 and 5.08 and 3.975 and 3.103 and 3.832 and 4.439 and 4.753 and 3.122 and 2.562
- OAS2, Type I IFN signalling array raw data [1, 3]: 4.012 and 3.3146 and 4.469 and 3.575 and 4.215 and 3.938 and 4.568 and 3.269 and 1.99
- PML, Type I IFN signalling array raw data [1, 3]: 3.464 and 4.0817 and 4.578 and 3.206 and 4.344 and 4.48 and 3.583 and 3.774 and 3.137
- SOCS1, Type I IFN signalling array raw data [1, 3]: 3.527 and 3.231 and 4.351 and 3.055 and 4.321 and 4.161 and 3.784 and 3.314 and 2.261
- STAT1, Type I IFN signalling array raw data [1, 3]: 0.658 and 1.171 and -0.3774 and -0.03547 and 0.5032 and 0.1577 and 0.4735 and 0.157 and -0.9535
- STAT2, Type I IFN signalling array raw data [1, 3]: 3.702 and 3.438 and 3.148 and 3.834 and 3.166 and 3.676 and 3.7416 and 3.178 and 2.42
- STAT3, Type I IFN signalling array raw data [1, 3]: 1.85 and 1.467 and 4.524 and 1.728 and 2.05 and 2.151 and 1.4 and 1.718 and 1.637
- TAP1, Type I IFN signalling array raw data [1, 3]: 1.739 and 1.988 and 2.594 and 1.8192 and 2.316 and 2.659 and 1.447 and 2.0534 and 1.014
- TNFSF10, Type I IFN signalling array raw data [1, 3]: 2.971 and 3.81 and 3.83 and 3.393 and 3.712 and 3.506 and 3.8599 and 3.839 and 2.706
- IFNAR1 cell surface levels ([2]; IFN + compound, three replicates): 40.6849 and 39.7065 and 39.3396
- IFNAR1 cell surface levels ([2]; sgROSA cells, IFN 50 ng/ml, 5 μM, 90 min): reduction in IFNAR1 cell surface levels

Reference: PMC7617869, “Molecular glues that inhibit deubiquitylase activity and inflammatory signaling” (Nature Structural & Molecular Biology, 2025)
